# Laboratory results reported in ChEMBL document CHEMBL1148630, “Conformationally biased P3 amide replacements of beta-secretase inhibitors” (Bioorg Med Chem Lett, 2006).
# Target: Beta-secretase 1 (Homo sapiens, UniProt P56817)
# Sequence (P56817 whole entry): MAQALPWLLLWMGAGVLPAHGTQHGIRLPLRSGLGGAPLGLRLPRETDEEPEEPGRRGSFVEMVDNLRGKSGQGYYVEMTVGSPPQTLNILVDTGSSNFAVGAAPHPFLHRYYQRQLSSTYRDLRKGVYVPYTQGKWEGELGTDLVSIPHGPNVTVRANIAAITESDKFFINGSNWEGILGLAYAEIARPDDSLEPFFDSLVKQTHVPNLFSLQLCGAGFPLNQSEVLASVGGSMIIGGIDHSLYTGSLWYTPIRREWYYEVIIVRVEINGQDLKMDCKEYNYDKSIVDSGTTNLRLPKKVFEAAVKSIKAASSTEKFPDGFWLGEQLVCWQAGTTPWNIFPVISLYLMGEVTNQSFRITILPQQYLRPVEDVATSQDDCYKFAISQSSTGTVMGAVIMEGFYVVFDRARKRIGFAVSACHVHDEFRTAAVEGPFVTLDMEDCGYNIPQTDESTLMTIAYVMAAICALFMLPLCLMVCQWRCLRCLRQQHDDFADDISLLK
# Description: Inhibition of BACE1 activity
row,IC50 [nM],Compound
1,1300,C=C(c1ccccc1)c1cc(C(=O)N[C@@H](Cc2ccccc2)[C@H](O)CNC2CC2)cc(N(C)S(C)(=O)=O)c1
2,5900,CN(c1cc(C(=O)N[C@@H](Cc2ccccc2)[C@H](O)CNC2CC2)cc(C(O)c2ccccc2)c1)S(C)(=O)=O (stereo partly drawn)
3,4630,CN(c1cc(Cc2ccccc2)cc(C(=O)N[C@@H](Cc2ccccc2)[C@H](O)CNC2CC2)c1)S(C)(=O)=O
4,5500,CN(c1cc(C(=O)N[C@@H](Cc2ccccc2)[C@H](O)CNC2CC2)cc(C(O)Cc2ccccc2)c1)S(C)(=O)=O (stereo partly drawn)
5,1400,CN(c1cc(C(=O)Cc2ccccc2)cc(C(=O)N[C@@H](Cc2ccccc2)[C@H](O)CNC2CC2)c1)S(C)(=O)=O

# More lines, now with the values behind:
row,Compound,IC50 [nM]
1,CN(c1cc(CCC2CC2)cc(C(=O)N[C@@H](Cc2ccccc2)[C@H](O)CNC2CC2)c1)S(C)(=O)=O,420
2,CN(c1cc(/C=C\C2CC2)cc(C(=O)N[C@@H](Cc2ccccc2)[C@H](O)CNC2CC2)c1)S(C)(=O)=O,35
3,CNC(=O)c1cc(C(=O)N[C@@H](Cc2ccccc2)[C@H](O)CNC2CC2)cc(N(C)S(C)(=O)=O)c1,980
4,CN(c1cc(C(=O)N[C@@H](Cc2ccccc2)[C@H](O)CNC2CC2)cc(C(=O)C2CCCCC2)c1)S(C)(=O)=O,450
5,CC(C)C(=O)c1cc(C(=O)N[C@@H](Cc2ccccc2)[C@H](O)CNC2CC2)cc(N(C)S(C)(=O)=O)c1,240
6,CN(c1cc(/C=C/C2CC2)cc(C(=O)N[C@@H](Cc2ccccc2)[C@H](O)CNC2CC2)c1)S(C)(=O)=O,730
7,CCC(=O)c1cc(C(=O)N[C@@H](Cc2ccccc2)[C@H](O)CNC2CC2)cc(N(C)S(C)(=O)=O)c1,1500
8,CN(c1cc(C(=O)N[C@@H](Cc2ccccc2)[C@H](O)CNC2CC2)cc(C(=O)C2CCCC2)c1)S(C)(=O)=O,180
